Patent publication US6413930B1, “Use of cck-b receptor antagonists for the treatment of sleep disorders” (Glaxo Wellcome Spa, priority 1994, dated 2002)

tested on: old rats; assay: Effect on sleep patterns (EEG pattern) in old rats; assay type: in vivo; details: single dose, ip
Experimental: In these animals the EEG patterns are disturbed. Administration of an effective amount of a CCK-B antagonist to such an animal alters the EEG pattern towards the normal. These effects may be observed using standard procedures such as those described by H.Depoortere et al. Physiology & Behaviour 1993, 54, 785-793.
The ability of CCK-B antagonists to effect sleep patterns in old rats was measured by examining the effect of the compound on the EEG pattern using the procedures described by H Depoortere et al. Physiology & Behaviour 1993 54, 785-793.

Compound	Dose that resulted in a significant improvement in total sleep time pattern [µg/kg]
O=C(Nc1cccc(C(=O)O)c1)NC1C(=O)N(CC23CC4CC(CC(C4)C2)C3)c2ccccc2N(c2ccccc2)C1=O (stereo not drawn) [Compound 5, N-1[-(Adamantylmethyl)-2,4,-dioxo-5-phenyl-2,3,4,5-tetrahydro-1H-1,5-benzodiazepin-3-yl]-N′-(3-carboxyphenyl)urea]	15
Cc1cccc(NC(=O)NC2N=C(c3ccccc3)c3ccccc3N(C)C2=O)c1 (stereo not drawn) [Compound 3, N-(2,3-dihydro-1-methyl-2-oxo-5-phenyl-1H-1,4-benzodiazepin-3-yl]-N′-3-methylphenyl urea]	5
O=C(Nc1ccccc1)NC1C(=O)N(CCN2CCOCC2)c2ccccc2N(CC23CC4CC(CC(C4)C2)C3)C1=O (single isomer, unassigned; (-)) [Compound 2, (−) N-[1-(1-Adamantylmethyl)-2,4-dioxo-5-[2-(4-morpholino)ethyl]-2,3,4,5-tetrahydro-1H-benzodiazepin-3-yl]-N′-phenylurea]	0.5
CN(C)CCN1C(=O)C(NC(=O)Nc2ccccc2)C(=O)N(CC23CC4CC(CC(C4)C2)C3)c2ccccc21 (stereo not drawn) [Compound 6]	0.5
CC(CNCC(NC(=O)CCC(=O)O)c1ccccc1)(Cc1c[nH]c2ccccc12)NC(=O)OC1C2CC3CC(C2)CC1C3.CNCC(O)C(O)C(O)C(O)CO (stereo not drawn) [Compound 4, (R-(R*, R*))4-((2-((3-(1H-indol-3-yl)-2-methyl-2-((tricyclo(3,3,1,1,3,7)dec-2yloxy)carbonyl)aminopropyl)amino)-1-phenylethyl)amino-4-oxo-butanoic acid meglumine salt]	5

same assay, conditions: single dose, ip and po

Compound	Dose that resulted in a significant improvement in total sleep time pattern [µg/kg]
O=C(Nc1ccccc1)NC1C(=O)N(CC23CC4CC(CC(C4)C2)C3)c2ccccc2N(c2ccccc2)C1=O (single isomer, unassigned; (+)) [Compound 1, (+) N-phenyl-N′-[2,3,4,5-tetrahydro-2,4-dioxo-1-(1-adamantylmethyl)-5-phenyl-1H-1,5-benzodiazepin-3-yl]urea]	5
